Molecular target: T1, M3 receptor (Canis lupus familiaris, UniProt A0A8I3N190)
T1 construct: from tissue; host or cells: whole animal, male beagle dogs (in vivo, airway)
Assay: Antagonism to M3 receptor: bronchodilation in anesthetized dogs (methacholine provocation test)
Assay type: in vivo, beagle dogs
Conditions: inhalation of 1 mg/ml for 10 minutes, methacholine threshold four hours after administration
Method: The bronchodilation action of inhaled test compound was evaluated by measuring the compounds' inhibitory action on respiratory resistance-increasing reaction induced by a methacholine provocation test. For the experiment, 12 to 36 months old male beagle dogs (weighing 10-15 kg) were used. After being anesthetized by intravenous pentobarbital administration (30 mg/kg), the dogs were intubated cannulae in their trachea. After their respiration became stable, the cannulae were connected with Astograph (TCK-6100H, Chest) and a methacholine provocation test by 3 Hz oscillation method was conducted. […] The methacholine concentration at which the respiratory resistance increased to twice the initial value was recorded as the methacholine reaction threshold value. Before evaluating the test compounds, the methacholine reaction threshold value^1) under no drug treatment was measured at least twice at a week's interval, to select the dogs showing reproducible reaction.
The inhaling administration of each test compound (1 mg/ml) was conducted for 10 minutes under pentobarbital anesthetization (30 mg/kg, i.v.), with the nebulizer in the Astograph. […] The bronchodilator activity (shift value) of each tested compound was determined according to the following equation: […]

T1 sequence (A0A8I3N190 1-590): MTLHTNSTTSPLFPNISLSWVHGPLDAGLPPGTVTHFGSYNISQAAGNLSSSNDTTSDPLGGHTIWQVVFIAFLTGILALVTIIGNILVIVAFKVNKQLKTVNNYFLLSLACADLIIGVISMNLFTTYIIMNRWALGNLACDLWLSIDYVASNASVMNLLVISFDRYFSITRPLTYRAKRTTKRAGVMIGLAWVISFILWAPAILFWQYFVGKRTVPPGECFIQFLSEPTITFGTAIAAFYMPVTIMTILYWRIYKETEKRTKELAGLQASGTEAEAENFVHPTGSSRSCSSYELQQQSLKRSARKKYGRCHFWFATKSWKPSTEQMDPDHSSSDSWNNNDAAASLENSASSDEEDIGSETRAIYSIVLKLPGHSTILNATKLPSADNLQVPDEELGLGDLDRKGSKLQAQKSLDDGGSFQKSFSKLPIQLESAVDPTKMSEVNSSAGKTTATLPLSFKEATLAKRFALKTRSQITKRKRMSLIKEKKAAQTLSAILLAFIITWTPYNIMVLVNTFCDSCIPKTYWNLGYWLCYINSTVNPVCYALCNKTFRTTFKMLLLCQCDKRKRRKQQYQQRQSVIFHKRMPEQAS

CC[N+]1(CC)CCC[C@H](CNC(=O)[C@H]2CCCN2C(=O)[C@@H]2C[C@@H](O)CN2C(=O)CC(c2ccccc2)(c2ccccc2)c2ccccc2)C1.[Cl-] [Example 133, (3R)-1,1-diethyl-3-({({(2R)-1-({(2S,4R)-4-hydroxy-1-(3,3,3-triphenylpropanoyl)-2-pyrrolidinyl}carbonyl)-2-pyrrolidinyl}carbonyl)amino}methyl)piperidinium chloride]
Shift (fold) Airway constriction M3: 20.2 fold
